≈ marks a conversion by molar mass, not a printed value. Where two headings read alike, the source gives them in different places. Bridge positions count the residues as written; N and C are the ends. Square brackets hold non-standard residues; d marks the D form. Peptide text beside a SMILES is read from it. 1Nal = N[C@@H](Cc1cccc2ccccc12)C(=O)O; d(aIle) = CC[C@H](C)[C@@H](N)C(=O)O; dNMeF = CN[C@H](Cc1ccccc1)C(=O)O; hArg = N=C(N)NCCCC[C@H](N)C(=O)O
Legend:
[1] = system: E.coli; format: cell-based, Escherichia coli; conditions: for MIC ratio Coli/Staph: ratio of E. coli MIC to S. aureus MIC
Protocol: (§1) This assay was used to determine the minimum concentration of a test compound (i.e., an antimicrobial peptide described herein) able to inhibit the growth of a bacterial strain of interest. This is a standard method for measuring and comparing the potency of peptide-based antibacterial agents (Steinberg et al., Antimicrobial Agents and Chemotherapy 1997, 41 (8) 1738 - 1742 and Wiegand et al., Nature Protocols 2008, 3, 163-175).
(§2) The MIC is reported in units of μg/mL.
(§3) Bacterial cultures were grown by inoculating Mueller-Hinton Broth (MHB) with 3 or 4 representative colony (typical size, color, and shape) from a bacterial strain grown on a LB agar plate. Inoculated liquid cultures were grown at 37° C. with moderate shaking (200-250 rpm) until bacteria produced a visibly turbid suspension. Bacterial inoculum was approximated by measuring the optical density at 600 nm (0D600) of the bacterial culture against a sterile MHB blank. Typically, OD600=0.10 corresponds to ˜1×10^8 cfu/mL for S.aureus and OD600 =0.15 corresponds to ˜1×10^8 cfu/mL for E.coli.
(§4) Test compounds were prepared as stock solutions in vehicle at a concentration 10 times the highest concentration to be tested for antibacterial activity (usually 320 μg/mL stock solutions). 2x serial dilutions in vehicle (at 10× the final test concentrations) of the test compounds were prepared from the test compound stock solutions in a non-binding 96 well plate.
(§5) In a sterile clear flat bottom 96 well plate, 15 μL of each test compound dilution was added to 135 μL of ˜5×10^5 cfu/mL bacterial culture. Each concentration was tested in duplicate. Each experiment contained positive control wells for bacterial growth (i.e., no test compound added to bacteria) and sterility controls wells (i.e., sterile MHB and no test compounds added). 96 well plates containing bacterial cultures and test compounds were incubated at 37° C. for 16-20 hours with shaking at 200 rpm.
(§6) After incubation, the MIC of each test compound was determined by measuring the OD600 of each well using a plate reader. Wells with OD600 >0.08 were considered to have bacterial growth and wells with OD600<0.08 were considered to have no bacterial growth. The lowest concentration of test agent able to inhibit bacterial growth (0D600<0.08 after 16-20 hours) was defined as the MIC.

[2] = system: S.aureus; format: cell-based, Staphylococcus aureus
Protocol: as §1, §2, §3, §4, §5, §6

[3] = system: C. difficile
[4] = system: B. fragilis
[5] = broth microdilution, Example 17a

MIC E. coli [1]	MIC ratio Coli/Staph [1]	MIC S. aureus [2]	MIC C. difficile [3]	MIC B. fragilis [4]	MIC C. difficile ([3]; anaerobic broth microdilution, read after 44-48 hours, Example 17b)	Compound	MIC E. coli [1, 5]	MIC S. aureus [2, 5]
>16 µg/mL	>64	0.25 to 0.5 µg/mL	0.12 µg/mL (≈ 0.0964 µM)	>32 µg/mL		CC[C@H](C)[C@H](NC(=O)[C@@H](Cc1ccccc1)NC)C(=O)N[C@@H](CO)C(=O)N[C@H](CCC(N)=O)C(=O)N[C@@H](C(=O)N[C@H](C(=O)N[C@@H](CO)C(=O)N[C@H]1C(=O)N[C@@H](C)C(=O)N[C@@H](CCCNC(=N)N)C(=O)N[C@@H]([C@@H](C)CC)C(=O)O[C@H]1C)[C@@H](C)CC)[C@@H](C)CC [Arg10-teixobactin]		
>32 µg/mL	>356	0.09 µg/mL (≈ 0.0663 µM)	0.06 µg/mL (≈ 0.0442 µM)	>32 µg/mL		CC[C@H](C)[C@H](NC(=O)[C@@H](Cc1ccccc1)NC)C(=O)N[C@@H](Cc1c[nH]c2ccccc12)C(=O)N[C@H](CCC(N)=O)C(=O)N[C@@H](C(=O)N[C@H](C(=O)N[C@@H](CO)C(=O)N[C@H]1C(=O)N[C@@H](C)C(=O)N[C@@H](CCCCNC(=N)N)C(=O)N[C@@H]([C@@H](C)CC)C(=O)O[C@H]1C)[C@@H](C)CC)[C@@H](C)CC [Compound 2, H-D-MePhe-Ile-Trp-D-Gln-D-aIle-Ile-Ser-c(D-Thr-Ala-Har-Ile)]		
>32 µg/mL	>356	0.09 µg/mL (≈ 0.0678 µM)				CC[C@H](C)[C@H](NC(=O)[C@@H](Cc1ccccc1)NC)C(=O)N[C@@H](Cc1cccc2ccccc12)C(=O)N[C@H](CCC(N)=O)C(=O)N[C@@H](C(=O)N[C@H](C(=O)N[C@@H](CO)C(=O)N[C@H]1C(=O)N[C@@H](C)C(=O)N[C@@H](CCCCN)C(=O)N[C@@H]([C@@H](C)CC)C(=O)O[C@H]1C)[C@@H](C)CC)[C@@H](C)CC [Compound 3, H-D-MePhe-Ile-1Nal-D-Gln-D-aIle-Ile-Ser-c(D-Thr-Ala-Lys-Ile)] (H-[dNMeF]I[1Nal][dQ][d(aIle)]IS[dT]AKI; ester 8-C)		
8 µg/mL (≈ 6.47 µM)	62	0.13 µg/mL (≈ 0.105 µM)	0.06 to 0.12 µg/mL	>32 µg/mL		CC[C@H](C)[C@H](NC(=O)[C@H](N)Cc1ccc(Cl)cc1)C(=O)N[C@@H](CO)C(=O)N[C@H](CCC(N)=O)C(=O)N[C@@H](C(=O)N[C@H](C(=O)N[C@@H](CO)C(=O)N[C@H]1C(=O)N[C@@H](C)C(=O)N[C@@H](CCCCN)C(=O)N[C@@H]([C@@H](C)CC)C(=O)O[C@H]1C)[C@@H](C)CC)[C@@H](C)CC [Compound 4, H-D-Phe(4-Cl)-Ile-Ser-D-Gln-D-aIle-Ile-Ser-c(D-Thr-Ala-Lys-Ile)]		
8 µg/mL (≈ 6.29 µM)	62	0.13 µg/mL (≈ 0.102 µM)	0.03 µg/mL (≈ 0.0236 µM)	>32 µg/mL		CC[C@H](C)[C@H](NC(=O)[C@@H](Cc1ccccc1)NC)C(=O)N[C@@H](CO)C(=O)N[C@H](CCC(N)=O)C(=O)N[C@@H](C(=O)N[C@H](C(=O)N[C@@H](CO)C(=O)N[C@H]1C(=O)N[C@@H](C)C(=O)N[C@@H](CCCCNC(=N)NC)C(=O)N[C@@H]([C@@H](C)CC)C(=O)O[C@H]1C)[C@@H](C)CC)[C@@H](C)CC [Compound 6, H-D-MePhe-Ile-Ser-D-Gln-D-aIle-Ile-Ser-c(D-Thr-Ala-Har(Me)-Ile)]		
32 µg/mL (≈ 24.3 µM)	246	0.13 µg/mL (≈ 0.0988 µM)		>32 µg/mL	≤0.03 to 0.06 µg/mL	CC[C@H](C)[C@H](NC(=O)[C@@H](Cc1ccccc1)NC)C(=O)N[C@@H](Cc1c[nH]c2ccccc12)C(=O)N[C@H](CCC(N)=O)C(=O)N[C@@H](C(=O)N[C@H](C(=O)N[C@@H](CO)C(=O)N[C@H]1C(=O)N[C@@H](C)C(=O)N[C@@H](CCCCN)C(=O)N[C@@H]([C@@H](C)CC)C(=O)O[C@H]1C)[C@@H](C)CC)[C@@H](C)CC [Compound 7, H-D-MePhe-Ile-Trp-D-Gln-D-aIle-Ile-Ser-c(D-Thr-Ala-Lys-Ile)] (H-[dNMeF]IW[dQ][d(aIle)]IS[dT]AKI; ester 8-C)		
16 µg/mL (≈ 13 µM)	123	0.13 µg/mL (≈ 0.106 µM)	0.12 µg/mL (≈ 0.0975 µM)	>32 µg/mL		CC[C@H](C)[C@H](NC(=O)[C@@H](Cc1ccccc1)NC)C(=O)N[C@@H](CO)C(=O)N[C@H](CCC(N)=O)C(=O)N[C@@H](C(=O)N[C@H](C(=O)N[C@@H](CO)C(=O)N[C@H]1C(=O)N[C@@H](C)C(=O)N[C@@H](CCCCCN)C(=O)N[C@@H]([C@@H](C)CC)C(=O)O[C@H]1C)[C@@H](C)CC)[C@@H](C)CC [Compound 9, H-D-MePhe-Ile-Ser-D-Gln-D-aIle-Ile-Ser-c(D-Thr-Ala-hLys-Ile)]		
16 µg/mL (≈ 13.2 µM)	84	0.19 µg/mL (≈ 0.156 µM)				CC[C@H](C)[C@H](NC(=O)[C@H](NC(=O)[C@@H](CCC(N)=O)NC(=O)[C@H](CO)NC(=O)[C@H](CC(C)C)NC(=O)[C@@H](Cc1ccccc1)NC)[C@@H](C)CC)C(=O)N[C@@H](CO)C(=O)N[C@H]1C(=O)N[C@@H](C)C(=O)N[C@@H](CCCCN)C(=O)N[C@@H]([C@@H](C)CC)C(=O)O[C@H]1C [Compound 10, H-D-MePhe-Leu-Ser-D-Gln-D-aIle-Ile-Ser-c(D-Thr-Ala-Lys-Ile)] (H-[dNMeF]LS[dQ][d(aIle)]IS[dT]AKI; ester 8-C)		
16 µg/mL (≈ 12.7 µM)	64	0.25 µg/mL (≈ 0.199 µM)	0.12 µg/mL (≈ 0.0953 µM)	>32 µg/mL		CC[C@H](C)[C@H](NC(=O)[C@@H](Cc1ccccc1)NC)C(=O)N[C@@H](CO)C(=O)N[C@H](CCC(N)=O)C(=O)N[C@@H](C(=O)N[C@H](C(=O)N[C@@H](CO)C(=O)N[C@H]1C(=O)N[C@@H](C)C(=O)N[C@@H](CCCNC(=N)NC)C(=O)N[C@@H]([C@@H](C)CC)C(=O)O[C@H]1C)[C@@H](C)CC)[C@@H](C)CC [Compound 11, H-D-MePhe-Ile-Ser-D-Gln-D-aIle-Ile-Ser-c(D-Thr-Ala-Arg(Me)-Ile)]		
32 µg/mL (≈ 26.3 µM)	128	0.25 µg/mL (≈ 0.206 µM)	0.25 µg/mL (≈ 0.206 µM)	>32 µg/mL		CC[C@@H](C)[C@@H](NC(=O)[C@@H](CCC(N)=O)NC(=O)[C@H](CO)NC(=O)[C@@H](NC(=O)[C@@H](Cc1ccccc1)NC)[C@@H](C)CC)C(=O)N[C@H](C(=O)N[C@@H](CO)C(=O)N[C@H]1C(=O)N[C@@H](C)C(=O)N[C@@H](CCCCN)C(=O)N[C@@H]([C@@H](C)CC)C(=O)O[C@H]1C)[C@@H](C)CC [Compound 12, H-D-MePhe-Ile-Ser-D-Gln-D-Ile-Ile-Ser-c(D-Thr-Ala-Lys-Ile)]		
16 µg/mL (≈ 12.6 µM)	64	0.25 µg/mL (≈ 0.196 µM)				CC[C@H](C)[C@H](NC(=O)[C@@H](Cc1ccccc1)NC)C(=O)N[C@@H](CO)C(=O)N[C@H](Cc1c[nH]c2ccccc12)C(=O)N[C@@H](C(=O)N[C@H](C(=O)N[C@@H](CO)C(=O)N[C@H]1C(=O)N[C@@H](C)C(=O)N[C@@H](CCCCN)C(=O)N[C@@H]([C@@H](C)CC)C(=O)O[C@H]1C)[C@@H](C)CC)[C@@H](C)CC [Compound 13, H-D-MePhe-Ile-Ser-D-Trp-D-aIle-Ile-Ser-c(D-Thr-Ala-Lys-Ile)] (H-[dNMeF]IS[dW][d(aIle)]IS[dT]AKI; ester 8-C)		

Compound	MIC E. coli [1]	MIC ratio Coli/Staph [1]	MIC S. aureus [2]	MIC C. difficile [3]	MIC B. fragilis [4]	MIC C. difficile ([3]; anaerobic broth microdilution, read after 44-48 hours, Example 17b)	MIC E. coli [1, 5]	MIC S. aureus [2, 5]
CC[C@H](C)[C@H](NC(=O)[C@@H](Cc1ccccc1)NC)C(=O)N[C@@H](CCCCN)C(=O)N[C@H](CCC(N)=O)C(=O)N[C@@H](C(=O)N[C@H](C(=O)N[C@@H](CO)C(=O)N[C@H]1C(=O)N[C@@H](C)C(=O)N[C@@H](CCCCNC(=N)N)C(=O)N[C@@H]([C@@H](C)CC)C(=O)O[C@H]1C)[C@@H](C)CC)[C@@H](C)CC [Compound 1, H-D-MePhe-Ile-Lys-D-Gln-D-aIle-Ile-Ser-c(D-Thr-Ala-Har-Ile)] (H-[dNMeF]IK[dQ][d(aIle)]IS[dT]A[hArg]I; ester 8-C)		67		<0.03 µg/mL	>32 µg/mL		4 µg/mL (≈ 3.08 µM)	0.06 µg/mL (≈ 0.0462 µM)
CC[C@H](C)[C@H](NC(=O)[C@@H](Cc1ccccc1)NC)C(=O)N[C@@H](CCCCN)C(=O)N[C@H](CCC(N)=O)C(=O)N[C@@H](C(=O)N[C@H](C(=O)N[C@@H](CO)C(=O)N[C@H]1C(=O)N[C@@H](C)C(=O)N[C@@H](CCCCN)C(=O)N[C@@H]([C@@H](C)CC)C(=O)O[C@H]1C)[C@@H](C)CC)[C@@H](C)CC [Compound 8, H-D-MePhe-Ile-Lys-D-Gln-D-aIle-Ile-Ser-c(D-Thr-Ala-Lys-Ile)] (H-[dNMeF]IK[dQ][d(aIle)]IS[dT]AKI; ester 8-C)		31		0.06 µg/mL (≈ 0.0477 µM)	>32 µg/mL		4 µg/mL (≈ 3.18 µM)	0.13 µg/mL (≈ 0.103 µM)
